# Assay results taken from US10308667B2, “Oxadiazolopyridine derivatives for use as ghrelin O-acyl transferase (GOAT) inhibitors” (Boehringer Ingelheim International GmbH, priority 2016, dated 2019).
# Target: human GOAT (Homo sapiens (Human), UniProt Q96T53)
# Experiment: Determination of hGOAT Activity in HEK293 Cells after Incubation with Test Compound
# Assay type: cell-based
# Details: HEK293 cells stably transfected with preproghrelin and human GOAT; octanoate-BSA 100 μM; acyl-ghrelin in medium by ELISA after 5 hours
# Method: Determination of hGOAT Activity in HEK293 Cells after Incubation with Test Compound
# HEK293 cells stably transfected with two expression vectors, one coding for preproghrelin cDNA and a second for the expression of human GOATcDNA are used as a cellular model. After feeding the cells with octanoic acid for 5 hours, acyl-ghrelin is measured in cell culture medium by an ELISA procedure.
# Cellline: Hek293 hGOAT/PPGhrl Clone #1B8Sodium octanoate, Sigma, Cat.-No. C5038
# BD Poly-D-Lysin 384-well Plates, black-clear polystyrene BD Bioscience Cat.-No. […] ELISA human acylated Ghrelin Kit purchased from Bertin Pharman (detailed composition of buffers e.g. wash-puffer, ELISA buffer not known)
# Cells are plated with a density of 5000 cells/well in 384-well poly-D-lysin plates and incubated for 1 day at 37° C., 5% CO2 in DMEM medium, 10% FCS, 1×NEAA, Puromycin (0.5 μg/ml) and G418 (1 mg/ml). Then the medium is changed to a identical medium without FCS and containing Octanoate-BSA (final concentration 100 μM each) and compound in DMSO (final DMSO concentration 0.3%). After incubation for 5 hours acylghrelin in the medium is measured by ELISA
# The medium sample is diluted 1:25 in Elisa buffer, A 25 ul aliquot is transferred to a 384-well ELISA plate previously washed 4 times with 100 μL wash buffer, and 25 μl tracer-solution is added. After incubation overnight (˜20 h) at 4° C. temperature the plate is washed 4 times with 100 μl wash-buffer per well. Finally 50 μl Ellman's reagent is added to each well and the plate is incubated in the dark for 20 minutes. The absorbance is measured at 405 nm in an Envision multilabel reader and the amount of acylated ghrelin is calculated according to a acylated ghrelin standard curve provided in the same plate.
# The analysis of the data is performed by calculation of the percentage of acyl-ghrelin produced in the presence of test compound compared to the amount of acyl-ghrelin produced in the vehicle control samples. An inhibitor of the GOAT enzyme will give values between 100% CTL (no inhibition) and 0% CTL (complete inhibition). IC50 values are calculated with Assay Explorer or other suited software based on curve fitting of results of 8 different compound concentrations.
# Sequence of human GOAT (Q96T53 whole entry): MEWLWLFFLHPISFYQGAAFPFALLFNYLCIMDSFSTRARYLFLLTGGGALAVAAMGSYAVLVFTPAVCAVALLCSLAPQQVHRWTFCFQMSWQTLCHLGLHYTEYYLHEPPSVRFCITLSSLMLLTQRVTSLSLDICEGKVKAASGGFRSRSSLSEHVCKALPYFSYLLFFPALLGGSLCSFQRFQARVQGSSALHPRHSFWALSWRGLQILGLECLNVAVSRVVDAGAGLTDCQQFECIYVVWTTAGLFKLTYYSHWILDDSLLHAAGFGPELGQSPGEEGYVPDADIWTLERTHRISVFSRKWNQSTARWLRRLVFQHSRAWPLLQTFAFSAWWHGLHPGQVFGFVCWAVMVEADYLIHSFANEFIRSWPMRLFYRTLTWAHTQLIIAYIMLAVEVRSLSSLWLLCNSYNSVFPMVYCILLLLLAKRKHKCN
row,Compound,IC50 [nM]
1,"Cc1nc2nonc2c(N)c1Cc1ccc(Br)c(OC2COC2)n1 [Example 98, 6-[5-Bromo-6-(oxetan-3-yloxy)-pyridin-2-ylmethyl]-5-methyl-[1,2,5]oxadiazolo[3,4-b]pyridin-7-ylamine]",1.9
2,"Cc1nc2nonc2c(N)c1Cc1ccc(Br)c(NCC2(C)COC2)n1 [Example 121, 6-{5-Bromo-6-[(3-methyl-oxetan-3-ylmethyl)-amino]-pyridin-2-ylmethyl}-5-methyl-[1,2,5]oxadiazolo[3,4-b]pyridin-7-ylamine]",0.045
3,"Cc1nc2nonc2c(N)c1Cc1ccc(C#N)c(N2CC3(COC3)C2)n1 [Example 137, 6-(7-Amino-5-methyl-[1,2,5]oxadiazolo[3,4-b]pyridin-6-ylmethyl)-2-(2-oxa-6-aza-spiro[3.3]hept-6-yl)-nicotinonitrile]",0.054
4,"Cc1nc2nonc2c(N)c1Cc1ccc(C(F)(F)F)c(C(N)=O)n1 [Example 89, 6-(7-Amino-5-methyl-[1,2,5]oxadiazolo[3,4-b]pyridin-6-ylmethyl)-3-trifluoromethyl-pyridine-2-carboxylic Acid Amide]",0.43
5,"Cc1nc2nonc2c(N)c1Cc1ccc(Br)c(NCC2(C)CCOC2)n1 (stereo not drawn) [Example 126, 6-{5-Bromo-6-[(3-methyl-tetrahydro-furan-3-ylmethyl)-amino]-pyridin-2-ylmethyl}-5-methyl-[1,2,5]oxadiazolo[3,4-b]pyridin-7-ylamine]",0.17
6,"Cc1nc2nonc2c(N)c1Cc1ncc(C(F)(F)F)cn1 [Example 35, 5-methyl-6-[5-(trifluoromethyl)pyrimidin-2-yl]methyl-[1,2,5]oxadiazolo[3,4-b]pyridin-7-amine]",1.8
7,"Cc1nc2nonc2c(N)c1Cc1cc(C(N)=O)ccn1 [Example 29, 2-(7-Amino-5-methyl-[1,2,5]oxadiazolo[3,4-b]pyridin-6-ylmethyl)-isonicotinamide]",16
8,"Cc1nc2nonc2c(N)c1Cc1ccc(F)c(C#N)n1 [Example 25, 6-(7-Amino-5-methyl-[1,2,5]oxadiazolo[3,4-b]pyridin-6-ylmethyl)-3-fluoro-pyridine-2-carbonitrile]",4.4
9,"Cc1nc2nonc2c(N)c1Cc1cccc(C(F)(F)F)n1 [Example 52, 5-Methyl-6-(6-trifluoromethyl-pyridin-2-ylmethyl)-[1,2,5]oxadiazolo[3,4-b]pyridin-7-ylamine]",0.48
10,"Cc1nc2nonc2c(N)c1Cc1ccc(Cl)c(C#N)n1 [Example 47, 6-(7-amino-5-methyl-[1,2,5]oxadiazolo[3,4-b]pyridin-6-ylmethyl)-3-chloropyridine-2-carbonitrile]",2.4
11,"Cc1nc2nonc2c(N)c1Cc1ccc(C#N)c(NCC(C)(C)C#N)n1 [Example 146, 6-(7-Amino-5-methyl-[1,2,5]oxadiazolo[3,4-b]pyridin-6-ylmethyl)-2-(2-cyano-2,2-dimethyl-ethylamino)-nicotinonitrile]",1.1
12,"Cc1nc2nonc2c(N)c1Cc1ccc(C(F)(F)F)c(C#N)n1 [Example 48, 6-(7-Amino-5-methyl-[1,2,5]oxadiazolo[3,4-b]pyridin-6-ylmethyl)-3-trifluoromethyl-pyridine-2-carbonitrile]",0.18
13,"Cc1nc2nonc2c(N)c1Cc1ccc(Oc2ccnn2C)c(C#N)n1 [Example 117, 6-(7-Amino-5-methyl-[1,2,5]oxadiazolo[3,4-b]pyridin-6-ylmethyl)-3-(2-methyl-2H-pyrazol-3-yloxy)-pyridine-2-carbonitrile]",0.19
14,"CSc1cccc(Cc2c(C)nc3nonc3c2N)n1 [Example 16, 5-Methyl-6-(6-methylsulfanyl-pyridin-2-ylmethyl)-[1,2,5]oxadiazolo[3,4-b]pyridin-7-ylamine]",0.28
15,"Cc1nc2nonc2c(N)c1Cc1ccc(C#N)c(S(C)(=O)=O)n1 [Example 162, 6-(7-Amino-5-methyl-[1,2,5]oxadiazolo[3,4-b]pyridin-6-ylmethyl)-2-methanesulfonyl-nicotinonitrile]",4.6
